In assay [1] the test system is production of CD69 by B lymphocytes in human whole blood. Briefly: CD69 Whole Blood Assay (Example 907). Particulars: Lymphocyte; human whole blood activated with goat F(ab')2 anti-human IgM, 20 hours; percent CD69 positive cells that are also CD20 positive. The format is cell-based. An excerpt: A CD69 Whole Blood Assay can be conducted on Formula I compounds to determine the ability of compounds to inhibit the production of CD69 by B lymphocytes in human whole blood activated by crosslinking surface IgM with goat F(ab')2 anti-human IgM (Example 907).
Human blood is obtained from healthy volunteers, with the following restrictions: 1 week drug-free, non-smokers. Blood (approximately 20 mls to test 8 compounds) is collected by venipuncture into Vacutainer® (Becton, Dickinson and Co.) tubes with sodium heparin.
Solutions of Formula I compounds at 10 mM in DMSO are diluted 1:10 in 100% DMSO, then are diluted by three-fold serial dilutions in 100% DMSO for a ten point dose-response curve. The compounds are further diluted 1:10 in PBS and then an aliquot of 5.5 µl of each compound is added in duplicate to a 2 ml 96-well plate; 5.5 µl of 10% DMSO in PBS is added as control and no-stimulus wells. Human whole blood - HWB (100 µl) is added to each well. After mixing the plates are incubated at 37 °C, 5% CO2, 100% humidity for 30 minutes. Goat F(ab')2 anti-human IgM (10 µl of a 500 µg/ml solution, 50 µg/ml final) is added to each well (except the no-stimulus wells) with mixing and the plates are incubated for an additional 20 hours. At the end of the 20 hour incubation, samples are incubated with fluorescent labeled antibodies for 30 minutes, at 37 °C, 5% CO2, 100% humidity. Include induced control, unstained and single stains for compensation adjustments and initial voltage settings. Samples are then lysed with PharM Lyse™ (BD Biosciences Pharmingen) according to the manufacturer's instructions. Samples are then transferred to a 96 well plate suitable to be run on the BD Biosciences HTS 96 well system on the LSRII machine. Data acquired and Mean Fluorescence Intensity values were obtained using BD Biosciences DIVA Software. Results are initially analyzed by FACS analysis software (Flow Jo). […] The IC50 values are calculated by Prism version 5, using a nonlinear regression curve fit.

Assay [2] concerns the target T1, full length human wildtype Btk (Homo sapiens, UniProt Q06187).
T1 construct: V5 (C); 6xHis (C); made in house; host or cells: Sf9 insect cells (baculovirus, pFastBac)
Put plainly: Biochemical Btk Kinase Assay (Example 901). Particulars: time-resolved fluorescence, final ATP concentration 40 µM; alternatively Lanthascreen assay, ATP 25 uM. The procedure: Formula I compounds were tested by a standard biochemical Btk Kinase Assay (Example 901). A generalized procedure for a standard biochemical Btk Kinase Assay that can be used to test Formula I compounds is as follows. […] Btk enzyme is prepared as follows: full length human wildtype Btk (accession number NM-000061) with a C-terminal V5 and 6x His tag was subcloned into pFastBac vector for making baculovirus carrying this epitope-tagged Btk. Generation of baculovirus is done based on Invitrogen's instructions detailed in its published protocol "Bac-to-Bac Baculovirus Expression Systems" (Cat. Nos. 10359-016 and 10608-016). Passage 3 virus is used to infect Sf9 cells to overexpress the recombinant Btk protein. The Btk protein is then purified to homogeneity using Ni-NTA column. The purity of the final protein preparation is greater than 95% based on the sensitive Sypro-Ruby staining. A solution of 200 µM ATP is prepared in water and adjusted to pH7.4 with 1N NaOH. A quantity of 1.25 µL of compounds in 5%DMSO is transferred to a 96-well ½ area Costar polystyrene plate. Compounds are tested singly and with an 11-point dose-responsive curve (starting concentration is 10 µM; 1:2 dilution). A quantity of 18.75 µL of master mix minus enzyme (as a negative control) and master mix plus enzyme is transferred to appropriate wells in 96-well ½ area costar polystyrene plate. 5 µL of 200 µM ATP is added to that mixture in the 96-well ½ area Costar polystyrene plate for final ATP concentration of 40 µM. The reaction is allowed to incubate for 1 hour at room temperature. The reaction is stopped with Perkin Elmer 1X detection buffer containing 30 mM EDTA, 20 nM SA-APC, and 1 nM PT66 Ab. The plate is read using time-resolved fluorescence with a Perkin Elmer Envision using excitation filter 330 nm, emission filter 665 nm, and 2nd emission filter 615 nm. IC50 values are subsequently calculated. Alternatively, the Lanthascreen assay can be used to evaluate Btk activity through quantification of its phosphorylated peptide product. The FRET (Fluorescence Resonance Energy Transfer) that occurs between the fluorescein on the peptide product and the terbium on the detection antibody decreases with the addition of inhibitors of Btk that reduce the phosphorylation of the peptide. […] After incubation for 60 minutes at room temperature, the reaction is stopped by the addition of a final concentration of 2 nM Tb-PY20 detection antibody in 60 mM EDTA for 30 minutes at room temperature. Detection is determined on a Perkin Elmer Envision with 340 nm excitation and emission at 495 nm and 520 nm. Exemplary Btk inhibition IC50 values are in Tables and 2.

The subject of the next assay is CD86 surface expression. Briefly: CD86 Inhibition Assay (Example 905), inhibition of B cell activity in total mouse splenocytes. In kind it is cell-based, Balb/c mice. The note with it: Splenocyte; total mouse splenocytes stimulated with 15 µg/ml IgM for 24 hr; gated on CD19+/7AAD- population. The procedure: A CD86 Inhibition assay can be conducted on Formula I compounds for the inhibition of B cell activity using total mouse splenocytes purified from spleens of 8-16 week old Balb/c mice (Example 905).
A generalized procedure for a standard assay for the inhibition of B cell activity that can be used to test Formula I compounds is as follows. Total mouse splenocytes are purified from spleens of 8-16 week old Balb/c mice by red blood cell lysis (BD Pharmingen #555899). Testing compounds are diluted to 0.5% DMSO and incubated with 1.25 x 10^6 splenocytes in a final volume of 200 µl in flat clear bottom plates (Falcon 353072) for 60 min at 37°C. Cells are then stimulated with the addition of 15 µg/ml IgM (Jackson ImmunoResearch 115-006-020), and incubated for 24 hr at 37°C, 5% CO2. Following the 24 hr incubation, cells are transferred to conical bottom clear 96-well plates and pelleted by centrifugation at 1200 x g x 5 min. Cells are preblocked by CD16/CD32 (BD Pharmingen #553142), followed by triple staining with CD19-FITC (BD Pharmingen #553785), CD86-PE (BD Pharmingen #553692), and 7AAD (BD Pharmingen #51-68981E). Cells are sorted on a BD FACSCalibur and gated on the CD19^+/7AAD^- population. The levels of CD86 surface expression on the gated population is measured versus test compound concentration. Exemplary results are in Table 3.

T1 sequence (Q06187 whole entry): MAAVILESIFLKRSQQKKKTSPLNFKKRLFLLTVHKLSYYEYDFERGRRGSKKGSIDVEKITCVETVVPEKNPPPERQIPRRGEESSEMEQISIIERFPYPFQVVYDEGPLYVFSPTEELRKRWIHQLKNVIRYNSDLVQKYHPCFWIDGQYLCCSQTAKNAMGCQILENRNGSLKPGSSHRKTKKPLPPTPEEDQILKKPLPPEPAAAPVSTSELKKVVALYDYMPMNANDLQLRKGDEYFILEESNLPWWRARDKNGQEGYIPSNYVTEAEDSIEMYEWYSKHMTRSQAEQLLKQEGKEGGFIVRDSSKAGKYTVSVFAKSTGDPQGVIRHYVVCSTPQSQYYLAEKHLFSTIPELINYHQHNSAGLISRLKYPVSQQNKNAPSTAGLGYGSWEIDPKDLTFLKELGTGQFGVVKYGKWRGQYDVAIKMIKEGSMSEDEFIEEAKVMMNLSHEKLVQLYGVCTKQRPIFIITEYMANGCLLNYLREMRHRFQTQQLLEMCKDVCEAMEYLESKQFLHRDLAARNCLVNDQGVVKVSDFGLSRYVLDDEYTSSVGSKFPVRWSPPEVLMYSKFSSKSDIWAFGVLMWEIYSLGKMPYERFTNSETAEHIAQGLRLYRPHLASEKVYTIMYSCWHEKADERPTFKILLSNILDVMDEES

By IC50 is commonly meant the point on the concentration scale where inhibition reaches its midpoint. A low value points to higher potency. `Cc1c(-c2cc(Nc3cc(C4CC4)[nH]n3)c(=O)[nH]n2)cccc1N1Cc2cc(C(C)(C)C)sc2C1=O` [Compound 113, 6-(3-{2-tert-butyl-6-oxo-4H,5H,6H-thieno[2,3-c]pyrrol-5-yl}-2-methylphenyl)-4-[(5-cyclopropyl-1H-pyrazol-3-yl)amino]-2,3-dihydropyridazin-3-one]: the half-inhibitory concentration (IC50) was 213 nM in assay [1] and 4 nM in assay [2].
Regarding `CC(C)(C)c1cc2c(s1)C(=O)N(c1nc(-c3cc(Nc4cc(C5CC5)[nH]n4)c(=O)[nH]n3)ccc1F)C2` [Compound 116, 6-(6-{2-tert-butyl-6-oxo-4H,5H,6H-thieno[2,3-c]pyrrol-5-yl}-5-fluoropyridin-2-yl)-4-[(5-cyclopropyl-1H-pyrazol-3-yl)amino]-2,3-dihydropyridazin-3-one], the 50% inhibitory concentration (IC50) in assay [1] worked out at 2500 nM; in assay [2], 35 nM.
The term EC50 denotes the concentration giving half of the maximal effect. A lower EC50 goes with a more potent agent. In assay [1], `Cc1c(-c2cc(Nc3cc4n(n3)CCN(C)C4)c(=O)[nH]n2)cc(F)cc1N1Cc2cc(C(C)(C)C)sc2C1=O` [Compound 122, 6-(3-{2-tert-butyl-6-oxo-4H,5H,6H-thieno[2,3-c]pyrrol-5-yl}-5-fluoro-2-methylphenyl)-4-({5-methyl-4H,5H,6H,7H-pyrazolo[1,5-a]pyrazin-2-yl}amino)-2,3-dihydropyridazin-3-one] displayed a half-inhibitory concentration (IC50) of 101 nM. This compound showed an EC50 in the assay on CD86 surface expression of 211 nM.
`CC(=O)N1CCn2nc(Nc3cc(-c4cccc(N5Cc6cc(C(C)(C)C)sc6C5=O)c4CCO)nn(C)c3=O)cc2C1` [Compound 128, 6-(3-{2-tert-butyl-6-oxo-4H,5H,6H-thieno[2,3-c]pyrrol-5-yl}-2-(2-hydroxyethyl)phenyl)-4-({5-acetyl-4H,5H,6H,7H-pyrazolo[1,5-a]pyrazin-2-yl}amino)-2-methyl-2,3-dihydropyridazin-3-one] had a half-maximal inhibitory concentration (IC50) in assay [1] of 568 nM.
Compound `Cn1nc(-c2cccc(N3Cc4cc(C(C)(C)C)sc4C3=O)c2CO)cc(Nc2cc3n(n2)CCN(C2CC2)C3)c1=O` [Compound 133, 6-(3-{2-tert-butyl-6-oxo-4H,5H,6H-thieno[2,3-c]pyrrol-5-yl}-2-(hydroxymethyl)phenyl)-4-({5-cyclopropyl4H,5H,6H,7H-pyrazolo[1,5-a]pyrazin-2-yl}amino)-2-methyl-2,3-dihydropyridazin-3-one] yielded a half-maximal inhibitory concentration (IC50) in assay [1] of 147 nM.
As to `Cn1nc(-c2ccc(F)c(N3Cc4cc(C(C)(C)C)sc4C3=O)c2CO)cc(Nc2cc(C3CC3)[nH]n2)c1=O` [Compound 142, 6-(3-{2-tert-butyl-6-oxo-4H,5H,6H-thieno[2,3-c]pyrrol-5-yl} -4-fluoro-2-(hydroxymethyl)phenyl)-4-[(5-cyclopropyl-1H-pyrazol-3-yl)amino]-2-methyl-2,3-dihydropyridazin-3-one], in assay [1], the IC50 was 410 nM. Moreover, the EC50 in the assay with CD86 surface expression is 1200 nM.

Values taken from patent EP2611798B1, “PYRIDAZINONES, METHOD OF MAKING, AND METHOD OF USE THEREOF” (Gilead Connecticut, Inc., priority 2010, dated 2012).
